Assay results as given in ChEMBL document CHEMBL1201862, “PubChem BioAssay data set” (2004).
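Step 1: Grow cells in 96-well plates. Step 2: Expose to compound for 48 hours at 5 concentrations. Step 3: Interpolate endpoints linearly; if unreached, use highest concentration. GI50 marks 50% less growth.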 Activity calls are given as the source filed them. No stated cut-off is given here; in the data, active = GI50 up to about 1.1 µM and inactive = higher.

Columns and labels:
Test in all cases: NCI-60 cell line screen, 48 h
SF-295 = test system: SF-295
MDA-MB-231 = test system: MDA-MB-231
SK-MEL-28 = test system: SK-MEL-28
SW-620 = test system: SW-620
HCC 2998 = test system: HCC 2998
UO-31 = test system: UO-31
SF-268 = test system: SF-268
A498 = test system: A498
BT-549 = test system: BT-549
SF-539 = test system: SF-539
OVCAR-5 = test system: OVCAR-5
OVCAR-4 = test system: OVCAR-4
EKVX = test system: EKVX
OVCAR-3 = test system: OVCAR-3
T47D = test system: T47D
A549 = test system: A549
NCI-H522 = test system: NCI-H522
NCI/ADR-RES = test system: NCI/ADR-RES
SR = test system: SR
SK-MEL-5 = test system: SK-MEL-5

SMILES	GI50 (SF-295)	GI50 (MDA-MB-231)	GI50 (SK-MEL-28)	GI50 (SW-620)	GI50 (HCC 2998)	GI50 (UO-31)	GI50 (SF-268)	GI50 (A498)	GI50 (BT-549)	GI50 (SF-539)	GI50 (OVCAR-5)	GI50 (OVCAR-4)	GI50 (EKVX)	GI50 (OVCAR-3)	GI50 (T47D)	GI50 (A549)	GI50 (NCI-H522)	GI50 (NCI/ADR-RES)	GI50 (SR)	GI50 (SK-MEL-5)
CCOC(=O)CCSc1nc2ccc(I)cc2c(=O)n1Cc1ccccc1	21.7 µM (inactive)	28.2 µM (inactive)	> 65.6 µM (inactive)	41.1 µM (inactive)	26.5 µM (inactive)	0.395 µM (active)	27.2 µM (inactive)	24.6 µM (inactive)	35.6 µM (inactive)	36.4 µM (inactive)	> 83.8 µM (inactive)	19.5 µM (inactive)	22.3 µM (inactive)	17.9 µM (inactive)	26.9 µM (inactive)	31.6 µM (inactive)	10.7 µM (inactive)	23.7 µM (inactive)	7.24 µM (inactive)	12.6 µM (inactive)
CCCc1c(O)c(=O)c2c(OC)cc(OC)c3c4c(OC)cc(OC)c5c(=O)c(O)c(CCC)c(c1c23)c54	0.37 µM (active)	1.56 µM (inactive)	3.13 µM (inactive)	1.13 µM (inactive)	1.76 µM (inactive)	0.404 µM (active)	0.714 µM (active)	0.678 µM (active)	0.34 µM (active)	0.361 µM (active)	2.13 µM (inactive)	2.56 µM (inactive)	1.06 µM (active)	1.92 µM (inactive)	1.33 µM (inactive)	0.386 µM (active)	0.199 µM (active)	0.9 µM (active)	0.141 µM (active)	0.533 µM (active)
O=C(c1ccccc1)c1ccc2nc3n(c2c1)C(c1c(Cl)cccc1Cl)SC3 (stereo not given)	3.37 µM (inactive)	18.4 µM (inactive)	10.4 µM (inactive)	3.53 µM (inactive)	7.05 µM (inactive)	3.17 µM (inactive)	4.79 µM (inactive)	15.7 µM (inactive)	3.54 µM (inactive)	5.68 µM (inactive)	3.95 µM (inactive)	7.45 µM (inactive)	4.63 µM (inactive)	4.68 µM (inactive)	3.08 µM (inactive)	4.49 µM (inactive)	1.74 µM (inactive)	2.13 µM (inactive)	1.43 µM (inactive)	3.24 µM (inactive)
N#CSc1[nH]cnc1C(N)=O	> 100 µM (inactive)	55.7 µM (inactive)	76.2 µM (inactive)	90.6 µM (inactive)	> 100 µM (inactive)	> 93.5 µM (inactive)	> 100 µM (inactive)	> 100 µM (inactive)	> 80.7 µM (inactive)	77.3 µM (inactive)	> 100 µM (inactive)	> 100 µM (inactive)	> 100 µM (inactive)	> 100 µM (inactive)	> 75.5 µM (inactive)	> 100 µM (inactive)	51.4 µM (inactive)	> 85.5 µM (inactive)	< 0.01 µM (active)	> 100 µM (inactive)
COC(=O)[C@H](Cc1ccccc1)NC(=O)c1ccc(CNC(=O)/C=C/c2ccc(OCc3ccccc3)cc2)cc1	18.4 µM (inactive)	16.5 µM (inactive)	4.49 µM (inactive)	> 47.4 µM (inactive)	24.3 µM (inactive)	14 µM (inactive)	10.8 µM (inactive)	2.59 µM (inactive)	21.5 µM (inactive)	16.4 µM (inactive)	38.2 µM (inactive)	6.55 µM (inactive)	25.7 µM (inactive)	10.7 µM (inactive)	18.8 µM (inactive)	27 µM (inactive)	65.9 µM (inactive)	30.4 µM (inactive)	12.1 µM (inactive)	7.87 µM (inactive)
Cc1cccc(NC(=S)Nc2cccc(Cl)c2)n1	32.1 µM (inactive)	> 100 µM (inactive)	> 100 µM (inactive)	> 100 µM (inactive)	> 100 µM (inactive)	> 100 µM (inactive)	> 67.8 µM (inactive)	> 70.3 µM (inactive)	> 100 µM (inactive)	30.1 µM (inactive)	> 100 µM (inactive)	> 100 µM (inactive)	> 100 µM (inactive)	> 100 µM (inactive)	> 100 µM (inactive)	> 100 µM (inactive)	49.9 µM (inactive)	> 96.4 µM (inactive)	> 100 µM (inactive)	> 100 µM (inactive)
Cc1cc2c(c(S(=O)(=O)c3ccc(Cl)cc3[N+](=O)[O-])c1)NCCC2	53.2 µM (inactive)	> 100 µM (inactive)	> 100 µM (inactive)	> 100 µM (inactive)	> 100 µM (inactive)	> 100 µM (inactive)	99.3 µM (inactive)	> 100 µM (inactive)	> 100 µM (inactive)	> 100 µM (inactive)	> 100 µM (inactive)	15.3 µM (inactive)	> 100 µM (inactive)	> 100 µM (inactive)	1.84 µM (inactive)	38.5 µM (inactive)	18.2 µM (inactive)	37.6 µM (inactive)	12.2 µM (inactive)	25.9 µM (inactive)
CN(C)CC1CCCC(CN2CCCCC2)C1=O (stereo not given)	> 93.5 µM (inactive)	15.1 µM (inactive)	13.9 µM (inactive)	1.87 µM (inactive)	18.5 µM (inactive)	17.2 µM (inactive)	19.5 µM (inactive)	38.5 µM (inactive)	15.2 µM (inactive)	17.5 µM (inactive)	31.4 µM (inactive)	4.25 µM (inactive)	12.5 µM (inactive)	8.63 µM (inactive)	2.19 µM (inactive)	> 62.1 µM (inactive)	0.0764 µM (active)	3.89 µM (inactive)	10.8 µM (inactive)	18.7 µM (inactive)
CC(C)CC(Nc1c(O)ccc2ccccc12)C(=O)O (stereo not given)	20.5 µM (inactive)	25.4 µM (inactive)	45.9 µM (inactive)	34.4 µM (inactive)	25.2 µM (inactive)	27.6 µM (inactive)	24.7 µM (inactive)	23.3 µM (inactive)	19.5 µM (inactive)	16.7 µM (inactive)	80.7 µM (inactive)	51.4 µM (inactive)	17.3 µM (inactive)	20.7 µM (inactive)	64.7 µM (inactive)	> 100 µM (inactive)	26.3 µM (inactive)	37.8 µM (inactive)	28.1 µM (inactive)	18.3 µM (inactive)
O=S(=O)(c1ccccc1)[C@H]1[C@@H]2O[C@@H]2C[C@@H]1O	> 100 µM (inactive)	> 100 µM (inactive)	> 100 µM (inactive)	> 100 µM (inactive)	> 100 µM (inactive)	> 100 µM (inactive)	> 100 µM (inactive)	> 100 µM (inactive)	> 100 µM (inactive)	> 100 µM (inactive)	> 100 µM (inactive)	> 100 µM (inactive)	> 100 µM (inactive)	> 100 µM (inactive)	> 100 µM (inactive)	> 100 µM (inactive)	> 100 µM (inactive)	> 100 µM (inactive)	> 100 µM (inactive)	> 100 µM (inactive)
